The values below come from patent publication EP2061765B1, “Serine-threonine protein kinase and PARP modulators” (Senhwa Biosciences, Inc., priority 2006, dated 2008).

The term IC50 denotes the point on the concentration scale where inhibition reaches its midpoint. The low end stands for inhibition by little substance, the high end for a need for much substance.

A value given as a limit tells only on which side of the number the result lay.

Assay in all cases: Cell proliferation assay (Alamar Blue)
Type in all cases: cell-based

One assay has as its system HCT-116. The following applies: Homo sapiens, 96 h, HCT-116 cells, four days.
In a further assay the test system is MiaPaCa. The following applies: Homo sapiens, MIA PaCa-2, 96 h, MiaPaCa cells, four days. As for the experimental part: (§1) A representative cell-proliferation assay protocol using Alamar Blue dye (stored at 4°C, use 20ul per well) is described hereafter. 96-well plate setup and compound treatment • a. Split and trypsinize cells. • b. Count cells using hemocytometer. • c. Plate 4,000-5,000 cells per well in 100 µl of medium and seed into a 96-well plate according to the following plate layout. Add cell culture medium only to wells B10 to B12. Wells B1 to B9 have cells but no compound added. [formula] [formula] • d. Add 100 µl of 2X drug dilution to each well in a concentration shown in the plate layout above. At the same time, add 100 µl of media into the control wells (wells B10 to B12). Total volume is 200 µl/well. • e. Incubate four (4) days at 37°C, 5% CO2 in a humidified incubator. • f. Add 20µl Alamar Blue reagent to each well. • g. Incubate for four (4) hours at 37°C, 5% CO2 in a humidified incubator. • h. Record fluorescence at an excitation wavelength of 544nm and emission wavelength of 590nm using a microplate reader.
(§2) In the assays, cells are cultured with a test compound for approximately four days, the dye then is added to the cells and fluorescence of […] dye is detected after approximately four hours. Different types of cells can be utilized in the assays (e.g., HCT-116 human colorectal carcinoma cells, PC-3 human prostatic cancer cells and MiaPaca human pancreatic carcinoma cells). Anti-proliferative effects of representative compounds are provided hereafter.

For another assay, the system named is Jurkat. The following applies: Homo sapiens, 96 h, Jurkat cells, four days. The protocol:
as §1, §2

The test system of a further assay is MDAMB231. The following applies: Homo sapiens, MDA-MB-231, 96 h, MDAMB231 cells, four days. The protocol:
as §1, §2

For `Cc1cccc(Nc2nc3cc(C(=O)O)ccc3c3cnccc23)c1` [drawing 356], the IC50 in the assay on HCT-116 is above 10 µM; with MiaPaCa it was 8.33 µM; in the assay with Jurkat, 3.45 µM.
The like results for `O=C(O)c1ccc2c(c1)nc(Nc1cccc(C(F)(F)F)c1)c1ccncc12` [drawing 357] were, in that order, 5.14 µM, 8.55 µM and 3.15 µM.
For `O=C(O)c1ccc2c(c1)nc(Nc1cc(F)cc(F)c1)c1nc(NC3CC3)ncc12` [drawing 358], in that order: above 10 µM, 2.32 µM and 6.02 µM.
For `O=C(O)c1ccc2c(c1)nc(Nc1cccc(F)c1)c1nc(NC3CC3)ncc12` [drawing 359], in that order: above 10 µM, 3.27 µM and 3.56 µM.
As to `COc1cccc(Nc2nc3cc(C(=O)O)ccc3c3cnc(NC4CC4)nc23)c1` [drawing 360], the IC50 in the assay on HCT-116 was above 10 µM; in the assay with MiaPaCa, 2.85 µM; with Jurkat, 3.44 µM.
Take `CN(C)CCNc1ncc2c(n1)c(Nc1ccc(F)c(Cl)c1)nc1cc(C(=O)O)ccc12` [drawing 361]: the IC50 with HCT-116 was above 10 µM; in the assay with MiaPaCa, 2.14 µM; in the assay with Jurkat, 1.25 µM.
The like results for `O=C(O)c1ccc2c(c1)nc(Nc1ccc(F)c(Cl)c1)c1nc(NCc3ccccn3)ncc12` [drawing 362] were, in that order, above 10 µM, 8.21 µM and 2.59 µM.
For `COC(CNc1ncc2c(n1)c(Nc1ccc(F)c(Cl)c1)nc1cc(C(=O)O)ccc12)OC` [drawing 363], in that order: above 10 µM, 3.41 µM and 1.12 µM.
On to `NC(=O)c1ccc2c(c1)nc(Nc1cccc(C(F)(F)F)c1)c1nc(NC3CC3)ncc12` [drawing 364], for which the IC50 in the assay with HCT-116 is above 10 µM; in the assay with MiaPaCa, 3.97 µM; with Jurkat, 1.16 µM.
As for `CNC(=O)c1ccc2c(c1)nc(Nc1cccc(C(F)(F)F)c1)c1nc(NC3CC3)ncc12` [drawing 366], the IC50 in the assay on HCT-116 is above 10 µM; with MiaPaCa, 11.9 µM; in the assay on Jurkat, 3.65 µM.
The like results for `O=C(O)c1ccc2c(c1)nc(Nc1ccc(F)c(Cl)c1)c1nc(NCc3cccnc3)ncc12` [drawing 367] were, in that order, above 10 µM, 1.97 µM and 1.5 µM.
The like results for `O=C(O)c1ccc2c(c1)nc(Nc1ccc(F)c(Cl)c1)c1nc(NCc3ccncc3)ncc12` [drawing 368] were, in that order, above 10 µM, 4.5 µM and 5.11 µM.
With `O=C(O)c1ccc2c(c1)nc(Nc1ccccc1)c1nc(Nc3ccccc3)ncc12` [drawing 369], the IC50 was above 10 µM in the assay on HCT-116, 5.12 µM in the assay with MiaPaCa and 8.98 µM in the assay with Jurkat.
For `CCOC(=O)CCNC(=O)c1ccc2c(c1)nc(Nc1cccc(C(F)(F)F)c1)c1nc(NC3CC3)ncc12` [drawing 371], in that order: above 10 µM, 0.33 µM and 3.75 µM.
As for `O=C(O)c1ccc2c(c1)nc(Nc1ccc(F)c(Cl)c1)c1ncncc12` [drawing 374], the IC50 in the assay on MDAMB231 was 1.11 µM.
`O=C(O)c1ccc2c(c1)nc(Nc1ccccc1)c1nc(NC3CC3)ncc12` [drawing 389] had an IC50 in the assay on MDAMB231 of 0.73 µM.
The same measure, in the same setting: as for `CCCNc1ncc2c(n1)c(Nc1ccccc1)nc1cc(C(=O)O)ccc12` [drawing 390], the figure is 18.2 µM.
Still for that read-out and setting: as for `COCCNc1ncc2c(n1)c(Nc1ccccc1)nc1cc(C(=O)O)ccc12` [drawing 391], the figure is 24.4 µM; as for `O=C(O)c1ccc2c(c1)nc(Nc1ccccc1)c1nc(NCCO)ncc12` [drawing 392], above 50 µM.
On the same count and under the same terms, as for `O=C(O)c1ccc2c(c1)nc(Nc1ccccc1)c1nc(NCCCO)ncc12` [drawing 393], the figure is 48.2 µM.
In turn, `O=C(O)c1ccc2c(c1)nc(Nc1ccccc1)c1nc(NC3CCNCC3)ncc12` [drawing 394] returned an IC50 in the assay with MDAMB231 above 50 µM.
The same measure, in the same setting: under `CCN(CC)CCNc1ncc2c(n1)c(Nc1ccccc1)nc1cc(C(=O)O)ccc12` [drawing 395] stands 10.5 µM; under `O=C(O)c1ccc2c(c1)nc(Nc1ccccc1)c1nc(NCCN3CCOCC3)ncc12` [drawing 396], 2.44 µM.
Same read-out and setting: as for `O=C(O)c1ccc2c(c1)nc(Nc1ccccc1)c1nc(NCCCN3CCOCC3)ncc12` [drawing 397], the figure is above 50 µM; as for `C#Cc1cccc(Nc2nc3cc(C(=O)O)ccc3c3cnc(NC4CC4)nc23)c1` [drawing 398], 4.9 µM.
For `C#Cc1cccc(Nc2nc3cc(C(=O)O)ccc3c3cnc(NCCC)nc23)c1` [drawing 399], inhibition in the assay with MDAMB231 was half-maximal at 10.4 µM (IC50).
Consider `C#Cc1cccc(Nc2nc3cc(C(=O)O)ccc3c3cnc(NCCOC)nc23)c1` [drawing 400], for which, in the assay on MDAMB231, 4.74 µM corresponded to half-maximal inhibition (IC50).
On the same count and under the same terms, as for `C#Cc1cccc(Nc2nc3cc(C(=O)O)ccc3c3cnc(NC4CCNCC4)nc23)c1` [drawing 401], the figure is above 50 µM; as for `C#Cc1cccc(Nc2nc3cc(C(=O)O)ccc3c3cnc(NCCCN4CCOCC4)nc23)c1` [drawing 402], 12.5 µM; as for `C#Cc1cccc(Nc2nc3cc(C(=O)O)ccc3c3cnc(NC)nc23)c1` [drawing 403], 5.21 µM.
On the same count and under the same terms, as for `O=C(O)c1ccc2c(c1)nc(Nc1ccc(Cl)c(C(F)(F)F)c1)c1ccncc12` [drawing 404], the figure is 4.43 µM; as for `O=C(O)c1ccc2c(c1)nc(Nc1cccc(Cl)c1)c1nc(NC3CC3)ncc12` [drawing 405], 3.93 µM.
Still for that read-out and setting: as for `O=C(O)c1ccc2c(c1)nc(Nc1cccc(C(F)(F)F)c1)c1ncncc12` [drawing 406], the figure is 2.93 µM.
Compound `CCOc1ncc2c(n1)c(Nc1cccc(C(F)(F)F)c1)nc1cc(C(=O)O)ccc12` [drawing 407] came in with an IC50 in the assay on MDAMB231 of 26.5 µM.
Same read-out and setting: as for `CNc1ncc2c(n1)c(Nc1cccc(Cl)c1)nc1cc(C(=O)O)ccc12` [drawing 408], the figure is 8.28 µM.
The same measure, in the same setting: under `CN(C)c1ncc2c(n1)c(Nc1cccc(Cl)c1)nc1cc(C(=O)O)ccc12` [drawing 409] stands 9.82 µM.
Same read-out and setting: under `Nc1ncc2c(n1)c(Nc1cccc(Cl)c1)nc1cc(C(=O)O)ccc12` [drawing 410] stands 4.12 µM; under `CC(C)Nc1ncc2c(n1)c(Nc1cccc(Cl)c1)nc1cc(C(=O)O)ccc12` [drawing 411], 20.8 µM.
`O=C(O)c1ccc2c(c1)nc(Nc1cccc(C(F)(F)F)c1)c1nc(NC3CC3)ncc12` [drawing 412] yielded an IC50 in the assay on MDAMB231 of 9.19 µM.
Still for that read-out and setting: as for `CCNc1ncc2c(n1)c(Nc1cccc(Cl)c1)nc1cc(C(=O)O)ccc12` [drawing 413], the figure is 6.87 µM; as for `CNc1ncc2c(n1)c(Nc1ccc(F)c(Cl)c1)nc1cc(C(=O)O)ccc12` [drawing 414], 15.8 µM.
Still for that read-out and setting: as for `Nc1ncc2c(n1)c(Nc1ccc(F)c(Cl)c1)nc1cc(C(=O)O)ccc12` [drawing 415], the figure is 6.53 µM; as for `O=C(O)c1ccc2c(c1)nc(Nc1ccc(F)c(Cl)c1)c1nc(NC3CC3)ncc12` [drawing 416], 7.12 µM; as for `COCCNc1ncc2c(n1)c(Nc1ccc(F)c(Cl)c1)nc1cc(C(=O)O)ccc12` [drawing 417], 12.6 µM.
Consider `C#Cc1cccc(Nc2nc3cc(C(=O)O)ccc3c3cnc(NCCOCC)nc23)c1` [drawing 418], for which the half-maximal inhibitory concentration (IC50) in the assay on MDAMB231 came to 31.6 µM.
Same read-out and setting: under `C#Cc1cccc(Nc2nc3cc(C(=O)O)ccc3c3cnc(NCCCOCC)nc23)c1` [drawing 419] stands 5.22 µM; under `C#Cc1cccc(Nc2nc3cc(C(=O)O)ccc3c3cnc(NCCCOC(C)C)nc23)c1` [drawing 420], 7.05 µM.
Still for that read-out and setting: under `O=C(O)c1ccc2c(c1)nc(Nc1cccc(Cl)c1)c1nc(O)ncc12` [drawing 421] stands above 50 µM.
Same read-out and setting: under `Cc1ncc2c(n1)c(Nc1cccc(Cl)c1)nc1cc(C(=O)O)ccc12` [drawing 422] stands 5.48 µM; under `C#Cc1cccc(Nc2nc3cc(C(=O)OC)ccc3c3cnc(NOC)nc23)c1` [drawing 423], above 50 µM.
In turn, `COC(=O)c1ccc2c(c1)nc(Nc1cccc(Cl)c1)c1nc(NCCC(N)=O)ncc12` [drawing 424] registered an IC50 with MDAMB231 of 27.2 µM.
On the same count and under the same terms, as for `NC(=O)CCNc1ncc2c(n1)c(Nc1cccc(Cl)c1)nc1cc(C(=O)O)ccc12` [drawing 425], the figure is above 50 µM; as for `O=C(O)CCNc1ncc2c(n1)c(Nc1cccc(Cl)c1)nc1cc(C(=O)O)ccc12` [drawing 426], above 50 µM; as for `Cc1cccc(Nc2nc3cc(C(=O)O)ccc3c3cnccc23)c1` [drawing 427], 17.5 µM.
Still for that read-out and setting: under `O=C(O)c1ccc2c(c1)nc(Nc1cccc(C(F)(F)F)c1)c1ccncc12` [drawing 428] stands 13 µM.
The same measure, in the same setting: as for `O=C(O)c1ccc2c(c1)nc(Nc1cc(F)cc(F)c1)c1nc(NC3CC3)ncc12` [drawing 429], the figure is 23 µM; as for `O=C(O)c1ccc2c(c1)nc(Nc1cccc(F)c1)c1nc(NC3CC3)ncc12` [drawing 430], 12.8 µM.
Compound `COc1cccc(Nc2nc3cc(C(=O)O)ccc3c3cnc(NC4CC4)nc23)c1` [drawing 431] displayed an IC50 in the assay on MDAMB231 of 20.1 µM.
